The source of these data is ChEMBL document CHEMBL2385056, “Imidazopyrazine Derivatives As Inhibitors of mTOR” (ACS Med Chem Lett, 2013).

A value given as a limit tells only on which side of the number the result lay.

One experiment deals with mTORC1 (Homo sapiens, UniProt P42345). Kind of experiment: Inhibition of mTORC1 in human PC3 cells assessed as reduction of phosphorylated 4E-BP1Thr37/46 level after 90 mins by HTRF assay. The class given is cell-based, PC-3. A general note: In TR-FRET formats the signal depends on donor and acceptor labels being close together.
Experiment [1] can be described thus: Inhibition of mTORC2 in human PC3 cells assessed as reduction of phosphorylated AKT Ser473 level after 90 mins by HTRF assay. The class given is cell-based. As to conditions: PC-3, 1.5 h.

For orientation: IC50 means the concentration that gives 50% inhibition. In the case of `Nc1nc([C@@H]2C[C@H]3CC[C@@H](C2)N3C(=O)c2nnc[nH]2)cn2c(-c3ccc(-c4ncc[nH]4)nc3)cnc12`, the IC50 (on mTORC1; in experiment [1]) was above 10000 nM in each case.

For `Nc1nc([C@@H]2C[C@H]3CC[C@@H](C2)N3C(=O)c2nnc[nH]2)cn2c(-c3cnn(-c4ccccc4)c3)cnc12`, the IC50 amounted to 1860 nM at mTORC1 and 1140 nM in experiment [1].

As for `Cn1ccc(-c2ccc(-c3cnc4c(N)nc([C@@H]5C[C@H]6CC[C@@H](C5)N6C(=O)c5nnc[nH]5)cn34)cn2)n1`, the IC50 (at mTORC1; in experiment [1]) was 1000 nM each time.

With `Nc1nc([C@@H]2C[C@H]3CC[C@@H](C2)N3C(=O)CO)cn2c(-c3ccc(-c4ccccc4)nc3)cnc12`, the IC50 (on mTORC1; in experiment [1]) was 100 nM in each case.

For `Nc1nc([C@@H]2C[C@H]3CC[C@@H](C2)N3C(=O)c2nnc[nH]2)cn2c(-c3ccc(-c4ccccc4)nc3)cnc12`, the IC50 at mTORC1 came to 100 nM; in experiment [1], 1 nM.
